Key:
[1] = Stability under treatment with commercially available acids and bases; format: physicochemical; settings: 20° C.
Method: For acids and bases (Table 59), 10 mg of Lys-Amp was mixed with 2 mL of each stock solution, and the solution was shaken at 20° C. For enzyme treatment (Table 60), 10 mg Lys-Amp was mixed with 5 mL of each enzyme cocktail, and the solution was shaken at 37° C. […] Many of the commercially available reagents also contained various solvents and/or surfactants.
Unless otherwise indicated, solutions were used directly from the container and were combined with neat Lys-Amp solid. Lewis Red Devil® Lye, Enforcer Drain Care® Septic Treatment, and Rid-X® Septic Treatment were prepared as saturated solutions in H2O. Enzymes used were purchased from Sigma and directly dissolved in water (3 mg/mL pepsin, 10 mg/mL pancreatin, 3 mg/mL pronase, 3 mg/mL esterase), while enzyme-containing nutraceuticals such as Omnigest® and VitälZym® were first either crushed or opened (1 tablet or capsule per 5 mL of H2O).

[2] = Serum and brain tissue levels following oral administration (LC/MS/MS); settings: rat, 5 mg/kg d-amphetamine base
[3] = Clinical pharmacokinetics, 25 and 75 mg, compared to Adderall XR and Dexedrine Spansule; settings: human, in vivo, po; for AUC(0-inf): L-lysine-d-amphetamine intact conjugate AUCinf; for AUC(0-t): L-lysine-d-amphetamine intact conjugate AUClast; for Cmax: L-lysine-d-amphetamine intact conjugate Cmax; for half-life: L-lysine-d-amphetamine intact conjugate T1/2, human; for Tmax: L-lysine-d-amphetamine intact conjugate Tmax; for concentration at 0 h / concentration at 0.5 h / concentration at 1 h / concentration at 2 h / concentration at 3 h / concentration at 4 h / concentration at 5 h / concentration at 6 h / concentration at 7 h / concentration at 8 h / concentration at 10 h / concentration at 12 h / concentration at 16 h / concentration at 24 h / concentration at 48 h / concentration at 72 h: L-lysine-d-amphetamine intact conjugate concentration
[4] = 25 mg, oral 25 mg L-lysine-d-amphetamine, mean
[5] = 25 mg, oral 25 mg L-lysine-d-amphetamine, individual subjects
[6] = 75 mg, oral 75 mg L-lysine-d-amphetamine, mean
[7] = 75 mg, oral 75 mg L-lysine-d-amphetamine, individual subjects

SMILES: CC(Cc1ccccc1)NC(=O)C(N)CCCCN [L-lysine-d-amphetamine, 2,6-diaminohexanoic acid-(1-methyl-2-phenylethyl)-amide]
- Hydrolysis by commercial acids and bases ([1]; up to 24 h): ineffective
- d-amphetamine release ([1]; Miracle-Gro®): 7%
- d-amphetamine release ([1]; Olympic® Deck Cleaner): 4%
- Intact conjugate in brain tissue [2]: not detected
- Intact conjugate in serum [2]: present in appreciable amounts
- AUC(0-inf) [3, 4]: 13.5 ng·h/mL
- AUC(0-t) [3, 4]: 11.3 ng·h/mL
- Cmax [3, 4]: 11.6 ng/mL
- half-life [3, 5]: 0.47 h
- half-life [3, 4]: 0.419 h
- Tmax [3, 5]: 1 h
- Tmax [3, 4]: 1.05 h
- concentration at 0 h [3, 5]: 0 ng/mL
- concentration at 0 h [3, 4]: 0 ng/mL
- concentration at 0.5 h [3, 4]: 5.1 ng/mL
- concentration at 1 h [3, 4]: 11.2 ng/mL
- concentration at 2 h [3, 4]: 2.2 ng/mL
- concentration at 3 h [3, 5]: 0 ng/mL
- concentration at 3 h [3, 4]: 0 ng/mL
- concentration at 4 h [3, 5]: 0 ng/mL
- concentration at 4 h [3, 4]: 0 ng/mL
- concentration at 5 h [3, 5]: 0 ng/mL
- concentration at 5 h [3, 4]: 0 ng/mL
- concentration at 6 h [3, 5]: 0 ng/mL
- concentration at 6 h [3, 4]: 0 ng/mL
- concentration at 7 h [3, 5]: 0 ng/mL
- concentration at 7 h [3, 4]: 0 ng/mL
- concentration at 8 h [3, 5]: 0 ng/mL
- concentration at 8 h [3, 4]: 0 ng/mL
- concentration at 10 h [3, 5]: 0 ng/mL
- concentration at 10 h [3, 4]: 0 ng/mL
- concentration at 12 h [3, 5]: 0 ng/mL
- concentration at 12 h [3, 4]: 0 ng/mL
- concentration at 16 h [3, 5]: 0 ng/mL
- concentration at 16 h [3, 4]: 0 ng/mL
- concentration at 24 h [3, 5]: 0 ng/mL
- concentration at 24 h [3, 4]: 0 ng/mL
- concentration at 48 h [3, 5]: 0 ng/mL
- concentration at 48 h [3, 4]: 0 ng/mL
- concentration at 72 h [3, 5]: 0 ng/mL
- concentration at 72 h [3, 4]: 0 ng/mL
- AUC(0-inf) [3, 6]: 59.5 ng·h/mL
- AUC(0-t) [3, 6]: 58.1 ng·h/mL
- Cmax [3, 6]: 53.6 ng/mL
- half-life [3, 6]: 0.534 h
- Tmax [3, 7]: 1 h
- Tmax [3, 6]: 1.05 h
- concentration at 0 h [3, 7]: 0 ng/mL
- concentration at 0 h [3, 6]: 0 ng/mL
- concentration at 0.5 h [3, 6]: 20.5 ng/mL
- concentration at 1 h [3, 6]: 53 ng/mL
- concentration at 2 h [3, 6]: 9.1 ng/mL

— patent publication US20090181898A1, “ABUSE-RESISTANT A[…]” (SHIRE LLC, priority 2002, published 2009)
